Test system: patients aged 40-80 years with moderate to severe COPD
Assay: Multi-centre, randomized, double-blind, placebo-controlled clinical study of nebulised ensifentrine in COPD (FEV1 spirometry)
Type: in vivo
Details: for Average change in baseline FEV1 (AUC)0-12 h at Week 12: 3 mg BID by nebuliser
Description: A clinical study was conducted to determine the efficacy of ensifentrine in treating COPD compared with placebo. Ensifentrine was administered by nebuliser at a dose of 3 mg twice daily (BID) for 24 weeks. The study was a multi-centre, randomized, double-blind, parallel-group, placebo-controlled trial with around 800 patients and 5:3 randomization.
The study population included patients aged 40-80 years with moderate to severe COPD (FEV1 30%-70% p.n., FEV1/forced vital capacity (FVC) ratio <0.7, with mMRC≥2). The randomization stratified (a) the use of stable background maintenance LAMA or LABA therapy use (approx. 50%. yes or no) and (b) cigarette smoking (current or former). Inhaled corticosteroid (ICS) maintenance therapy was permitted in up to 20% of patients under certain provisions.
The primary endpoint of the study was change from baseline in average FEV1 area under the curve (AUC)0-12 h post-dose at week 12. Secondary endpoints of the study included: peak FEV1 over 4 hours post-dose at Week 12; morning trough FEV1 at Week 12; and other endpoints including moderate/severe COPD exacerbations frequency over 24 Weeks.
COPD severity is derived as follows: mild: 80%<=FEV1, moderate: 50%<=FEV1<80% predicted, severe: 30%<=FEV1<50% predicted and very severe: FEV1<30% predicted, post bronchodilator dose at Screening.
Baseline FEV1 is the mean of the two measurements taken before study medication on the day of first dosing, i.e. ≤40 minutes and just prior to dosing, both pre-dose on day 1.
Average FEV1 AUC0-12 h is defined as area under the curve over 12 hours of the FEV1, divided by 12 hours.
The investigational product and placebo were provided in 2.5 mL unit dose format in an ampule and administered via a nebuliser.

## COc1cc2c(cc1OC)-c1c/c(=N\c3c(C)cc(C)cc3C)n(CCNC(N)=O)c(=O)n1CC2 [Ensifentrine, N-(2-{(2E)-9,10-dimethoxy-4-oxo-2-[(2,4,6-trimethylphenyl)imino]-6,7-dihydro-2H-pyrimido[6,1-a]isoquinolin-3(4H)-yl}ethyl)urea]
All subgroups of COPD patients in the study
  Improvement in lung function: statistically significant
Moderate COPD patients
  Improving lung function in moderate COPD: particularly effective
Patients with moderate COPD
  Average change in baseline FEV1 (AUC)0-12 h at Week 12: 139 mL
Patients with severe COPD
  Average change in baseline FEV1 (AUC)0-12 h at Week 12: 45 mL

From US20240173327A1, “NEW TREATMENT” (Verona Pharma PLC, priority 2022, published 2024)
